Measured values taken from ChEMBL document CHEMBL3727354, “3-(2-amino-ethyl)-5-(3-cyclohexyl-propylidene)-thiazolidine-2,4-dione and its derivatives as multiple signaling pathway inhibitors and for the treatment of cancer” (2011).
Active and inactive are the calls of the source. The rule behind the calls is not given here.

Assays:
[1] = Cell cycle arrest in human U937 cells assessed as accumulation at G2/M phase after 24 hrs by propidium iodide staining-based flow cytometric analysis; format: functional; conditions: U-937
B16-F10 [2] = test: Antitumor activity against mouse B16F10 cells implanted in B6C3F1 mouse assessed as increase in mouse survival rate at 50 mg/kg, ip administered on day 11 post tumor implantation measured twice a day during compound dosing; format: functional, organism-based
Mus musculus [3] = test: Toxicity in B6C3F1 mouse assessed as effect on general health at 20 mg/kg, po administered for 21 days; format: organism-based; conditions: in vivo, 504 h
[4] = Cell cycle arrest in human U937 cells assessed as decrease in cell level at S phase after 24 hrs by propidium iodide staining-based flow cytometric analysis; format: functional; conditions: U-937
[5] = Cell cycle arrest in human U937 cells assessed as decrease in cell level at G0/G1 phase after 24 hrs by propidium iodide staining-based flow cytometric analysis; format: functional; conditions: U-937
Mus musculus [6] = test: Toxicity in B6C3F1 mouse assessed as effect on body weight at 20 mg/kg, po administered for 21 days; format: organism-based; conditions: in vivo, 504 h
Mus musculus [7] = test: Toxicity in B6C3F1 mouse assessed as effect on general health at 30 to 80 mg/kg, po administered for 21 days; format: organism-based; conditions: in vivo, 504 h
[8] = Inhibition of Raf/MEK/ERK pathway in human U937 cells assessed as inhibition of ERK1/2 phosphorylation at Thr202/Tyr204 at 3 uM preincubated for 1 hr followed by PMA stimulation measured after 30 mins by Western blot analysis; format: cell-based; conditions: U-937
[9] = Inhibition of PI3K/Akt pathway in human U937 cells assessed as reduction of Akt phosphorylation preincubated for 1 hr followed by PMA stimulation measured after 30 mins by Western blot analysis; format: cell-based; conditions: U-937
B16-F10 [10] = test: Antitumor activity against mouse B16F10 cells implanted in B6C3F1 mouse assessed as decrease in lung tumor nodules at 20 mg/kg administered daily via oral gavage started one day before tumor implantation and stopped at day 15 post tumor implantation measured at day 18; format: functional, organism-based
[11] = Inhibition of Raf/MEK/ERK pathway in human U937 cells assessed as reduction of MEK phosphorylation preincubated for 1 hr followed by PMA stimulation measured after 30 mins by Western blot analysis; format: cell-based; conditions: U-937
DU-145 = test: Induction of apoptosis in human DU145 cells at 5 to 25 uM after 24 hrs by annexin V/propidium iodide staining-based flow cytometric analysis; format: functional, cell-based
[12] = Inhibition of Raf/MEK/ERK pathway in human U937 cells assessed as reduction of MEK phosphorylation at 0.3 to 30 uM preincubated for 1 hr followed by PMA stimulation measured after 30 mins by Western blot analysis in presence of MEK inhibitor PD184352; format: cell-based; conditions: U-937
M12 = test: Induction of apoptosis in human M12 cells after 24 hrs by annexin V/propidium iodide staining-based flow cytometric analysis; format: functional, cell-based
Mus musculus [13] = test: Toxicity in B6C3F1 mouse assessed as effect on body weight at 30 to 80 mg/kg, po administered for 21 days; format: organism-based; conditions: in vivo, 504 h
U-937 = test: Induction of apoptosis in human U937 cells after 24 hrs by annexin V/propidium iodide staining-based flow cytometric analysis; format: functional, cell-based

SMILES | Activity [1] | Activity (B16-F10 [2]) | Activity (Mus musculus [3]) | Activity [4] | Activity [5] | Activity (Mus musculus [6]) | Activity (Mus musculus [7]) | inhibition [8] | inhibition [9] | Activity (B16-F10 [10]) | inhibition [11] | Activity (DU-145) | inhibition [12] | Activity (M12) | Activity (Mus musculus [13]) | Activity (U-937)
Cl.NCCN1C(=O)S/C(=C\CCc2ccccc2)C1=O | Active | Active | Non-toxic | Active | Active | Non-toxic |  |  |  |  |  |  |  |  |  | 
Cl.NCCN1C(=O)S/C(=C\CCC2CCCCC2)C1=O | Active |  |  | Active | Active |  | Non-toxic | Active | Dose-dependent effect | Active | Dose-dependent effect | inactive | inactive | Dose-dependent effect | Non-toxic | Dose-dependent effect
